Results from patent US12673052B2, “Combinations for the treatment of cancer” (Exelixis, Inc., priority 2020, dated 2026).

Tests used:
SNU-5 = experiment: Tumor growth inhibition in xenograft model; format: in vivo, CB.17 SCID mice
Protocol: (§1) Three human tumor cell lines, NCI-H441, MDA-MB-231, and SNU-5, were selected for use in tumor xenograft studies using athymic nude, NSG and CB.17 SCID mice, respectively. Pharmacodynamic modulation of MET phosphorylation was also measured in the NCI-H441 and SNU-5 xenografts. Tumor-bearing mice were orally dosed once-daily for 14 days (qd×14), and the tumors were resected and processed for MET phosphorylation analysis by Western blot. […]

NCI-H441 = experiment: Tumor growth inhibition in xenograft model; format: in vivo, athymic nude mice
Protocol: as §1

CYP3A4 [1] = experiment: Cytochrome P450 induction (mRNA levels) in fresh primary human hepatocytes; format: in vitro ADME
CYP2C19 [2] = experiment: as above; format: in vitro ADME
hERG channel = hERG channel (Homo sapiens, UniProt Q12809); experiment: In vitro hERG channel inhibition; format: cell-based
CYP2C9 [3] = experiment: Cytochrome P450 induction (mRNA levels) in fresh primary human hepatocytes; format: in vitro ADME
CYP2D6 [4] = target: T1, CYP2D6 (Homo sapiens, UniProt P10635); experiment: CYP/UGT substrate specificity (recombinant Supersomes, chemical inhibitors in human liver microsomes); format: in vitro ADME; parameters: purchased; host or cells: recombinant Supersomes; human liver microsomes
Protocol: (§2) Plasma PK of Compound 1 was characterized in rats and beagle dogs. Toxicokinetic (TK) evaluations of oral Compound 1 were evaluated in repeat-dose studies in rats and dogs. Plasma protein binding was determined in mouse, rat, dog, monkey, and human plasma in vitro. Biotransformation and metabolite profiling of Compound 1 were investigated in vitro using mouse, rat, dog, monkey, and human liver microsomal fractions and hepatocytes and in vivo in rats and dogs. P-glycoprotein (P-gp) and breast cancer resistance protein (BCRP) transporter interaction studies, in vitro experiments evaluating cytochrome P450 (CYP) induction and inhibition by Compound 1, and CYP and glucuronosyltransferase (UGT) substrate specificity studies of Compound 1 were also performed.

VEGFR2 = VEGFR2 (Homo sapiens, UniProt P35968); experiment: RTK autophosphorylation ELISA, HUVEC stimulated with VEGF165; format: cell-based; parameters: cell lines (PC-3, HUVEC, and A-172) stimulated with ligands to their respective receptors to induce autophosphorylation (MET, VEGFR2, and AXL); endogenous in cells; host or cells: HUVEC; details: VEGFR2, ligand VEGF165; read-out: Cellular IC50
Protocol: (§3) The activity of Compound 1 was evaluated in cell-based assays that assessed the mechanistic effects of the compound in tumor and normal cells. Consistent with the biochemical data, Compound 1 is a potent inhibitor of cellular RTKs as assessed by analysis of receptor autophosphorylation as measured by enzyme-linked immunosorbent assay. Assays were performed using cell lines (PC-3, HUVEC, and A-172) stimulated with ligands to their respective receptors to induce autophosphorylation (MET, VEGFR2, and AXL) or a cell line (293A) transfected with an expression vector encoding the receptor of interest (MER). Inhibition of endogenous phosphorylated MET by Compound 1 in Hs 746T gastric carcinoma cells was also investigated due to the presence of the skip-splice mutation of exon 14 in the MET gene. This MET exon 14 alteration leads to increased MET stability and oncogenic activation, including constitutive MET phosphorylation. Also this mutation is known to occur in 3% of lung adenocarcinoma patients and to be sensitive to MET-targeted therapies (Frampton et al 2015).

[5] = Hepatocyte stability assay; format: in vitro ADME, monkey; details: hepatocytes
Protocol: In the liver microsomal stability assay, CLint was 0.601 mL/min/g liver in mouse, 0.563 mL/min/g liver in rat, 0.315 mL/min/g liver in dog, 0.734 mL/min/g liver in monkey, and 0.639 mL/min/g liver in human. In the hepatocyte stability assay, Compound 1 CLint was 0.373 mL/min/g liver in mouse, 0.285 mL/min/g liver in rat, 1.08 mL/min/g liver in dog, 0.533 mL/min/g liver in monkey, and 0.317 mL/min/g liver in human.

[6] = In vitro plasma protein binding; format: in vitro ADME, monkey
Protocol: as §2
Compound 1 (10 μM) was 97.2 and 97.5% protein bound in monkey and human plasma, respectively.

CYP3A4 [7] = target: CYP3A4 (Homo sapiens, UniProt P08684); experiment: Cytochrome P450 inhibition in vitro; format: in vitro ADME
Protocol: as §2

CYP2C19 [8] = target: CYP2C19 (Homo sapiens, UniProt P33261); experiment: Cytochrome P450 inhibition in vitro; format: in vitro ADME
Protocol: as §2

CYP2D6 [9] = target: T1, CYP2D6; experiment: Cytochrome P450 inhibition in vitro; format: in vitro ADME; details: low CYP inhibition potential
Protocol: as §2

CYP2C9 [10] = target: CYP2C9 (Homo sapiens, UniProt P11712); experiment: Cytochrome P450 inhibition in vitro; format: in vitro ADME
Protocol: as §2

CYP 2B6 = CYP 2B6 (Homo sapiens, UniProt P20813); experiment: Cytochrome P450 inhibition in vitro; format: in vitro ADME; details: low CYP inhibition potential
Protocol: as §2

CYP1A2 = CYP1A2 (Homo sapiens, UniProt P05177); experiment: Cytochrome P450 inhibition in vitro; format: in vitro ADME; details: low CYP inhibition potential
Protocol: as §2

CYP2C8 = CYP2C8 (Homo sapiens, UniProt P10632); experiment: Cytochrome P450 inhibition in vitro; format: in vitro ADME
Protocol: as §2

[11] = Permeability in Caco-2 cells; format: in vitro ADME; details: human, highly permeable, read-out: apparent permeability coefficient (Papp)
MET = MET (Homo sapiens, UniProt P08581); experiment: RTK autophosphorylation ELISA, PC-3 cells stimulated with HGF; format: cell-based; parameters: cell lines (PC-3, HUVEC, and A-172) stimulated with ligands to their respective receptors to induce autophosphorylation (MET, VEGFR2, and AXL); endogenous in cells; host or cells: PC-3; details: MET (PC-3), ligand HGF; read-out: Cellular IC50
Protocol: as §3

[12] = 10 mg/kg qd × 14 oral, p-value <0.0001
[13] = human, fresh primary human hepatocytes, mRNA induction, read-out: half-maximal effective concentration (EC50)

T1 sequence (P10635 whole entry): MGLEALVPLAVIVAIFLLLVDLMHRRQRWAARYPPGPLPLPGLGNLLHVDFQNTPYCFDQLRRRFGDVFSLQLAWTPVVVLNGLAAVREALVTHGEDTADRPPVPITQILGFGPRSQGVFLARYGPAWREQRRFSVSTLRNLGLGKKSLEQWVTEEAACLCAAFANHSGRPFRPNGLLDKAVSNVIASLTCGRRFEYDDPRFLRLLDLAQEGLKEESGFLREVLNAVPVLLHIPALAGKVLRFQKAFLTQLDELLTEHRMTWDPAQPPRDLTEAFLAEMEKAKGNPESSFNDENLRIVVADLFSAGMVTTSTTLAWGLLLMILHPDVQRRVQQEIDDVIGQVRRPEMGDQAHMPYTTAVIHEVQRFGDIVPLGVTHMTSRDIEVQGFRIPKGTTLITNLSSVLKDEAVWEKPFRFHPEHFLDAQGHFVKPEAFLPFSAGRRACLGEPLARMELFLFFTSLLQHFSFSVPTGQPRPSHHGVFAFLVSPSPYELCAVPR
Chain of CYP3A4 (Homo sapiens, UniProt P08684) (P08684 whole entry): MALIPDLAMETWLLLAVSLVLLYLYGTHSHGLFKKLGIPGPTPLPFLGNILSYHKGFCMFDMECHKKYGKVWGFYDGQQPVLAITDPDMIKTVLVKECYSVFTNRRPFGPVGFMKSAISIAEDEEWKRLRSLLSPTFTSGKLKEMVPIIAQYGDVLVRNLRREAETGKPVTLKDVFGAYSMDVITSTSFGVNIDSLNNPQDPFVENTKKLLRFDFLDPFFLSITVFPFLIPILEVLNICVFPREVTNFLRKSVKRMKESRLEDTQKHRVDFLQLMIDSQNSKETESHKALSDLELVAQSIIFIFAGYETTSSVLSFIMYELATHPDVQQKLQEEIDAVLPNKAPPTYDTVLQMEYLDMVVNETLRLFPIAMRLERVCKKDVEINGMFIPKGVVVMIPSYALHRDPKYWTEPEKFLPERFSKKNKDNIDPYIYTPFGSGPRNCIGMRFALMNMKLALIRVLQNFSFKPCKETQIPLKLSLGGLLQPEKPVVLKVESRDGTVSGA
Chain of CYP 2B6 (P20813 whole entry): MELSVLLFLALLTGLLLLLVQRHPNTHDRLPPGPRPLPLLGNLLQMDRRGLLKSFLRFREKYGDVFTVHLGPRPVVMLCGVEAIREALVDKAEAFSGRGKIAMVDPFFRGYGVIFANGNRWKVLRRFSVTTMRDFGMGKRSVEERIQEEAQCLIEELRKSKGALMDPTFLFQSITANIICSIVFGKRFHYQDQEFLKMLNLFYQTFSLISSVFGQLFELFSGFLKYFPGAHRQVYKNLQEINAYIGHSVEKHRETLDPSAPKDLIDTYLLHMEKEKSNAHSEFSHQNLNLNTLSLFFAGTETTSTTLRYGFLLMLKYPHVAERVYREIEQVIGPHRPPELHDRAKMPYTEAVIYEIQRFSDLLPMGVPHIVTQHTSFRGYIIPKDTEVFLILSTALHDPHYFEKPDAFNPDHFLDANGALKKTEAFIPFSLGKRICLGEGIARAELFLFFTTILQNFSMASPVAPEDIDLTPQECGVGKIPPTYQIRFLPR
Chain of CYP2C8 (P10632 whole entry): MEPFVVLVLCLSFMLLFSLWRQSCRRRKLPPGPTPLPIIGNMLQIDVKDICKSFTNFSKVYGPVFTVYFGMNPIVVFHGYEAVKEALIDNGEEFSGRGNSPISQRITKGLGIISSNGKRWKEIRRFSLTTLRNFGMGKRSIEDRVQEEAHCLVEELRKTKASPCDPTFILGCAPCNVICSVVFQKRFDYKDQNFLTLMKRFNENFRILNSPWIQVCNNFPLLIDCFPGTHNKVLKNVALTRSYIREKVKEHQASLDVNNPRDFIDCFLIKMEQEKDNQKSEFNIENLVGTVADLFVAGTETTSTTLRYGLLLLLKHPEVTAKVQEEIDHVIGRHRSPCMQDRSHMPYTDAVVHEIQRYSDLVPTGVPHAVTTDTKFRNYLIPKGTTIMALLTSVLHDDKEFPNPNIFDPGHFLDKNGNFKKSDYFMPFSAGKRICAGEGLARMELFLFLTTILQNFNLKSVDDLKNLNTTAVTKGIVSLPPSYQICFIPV
Chain of CYP2C19 (Homo sapiens, UniProt P33261) (P33261 whole entry): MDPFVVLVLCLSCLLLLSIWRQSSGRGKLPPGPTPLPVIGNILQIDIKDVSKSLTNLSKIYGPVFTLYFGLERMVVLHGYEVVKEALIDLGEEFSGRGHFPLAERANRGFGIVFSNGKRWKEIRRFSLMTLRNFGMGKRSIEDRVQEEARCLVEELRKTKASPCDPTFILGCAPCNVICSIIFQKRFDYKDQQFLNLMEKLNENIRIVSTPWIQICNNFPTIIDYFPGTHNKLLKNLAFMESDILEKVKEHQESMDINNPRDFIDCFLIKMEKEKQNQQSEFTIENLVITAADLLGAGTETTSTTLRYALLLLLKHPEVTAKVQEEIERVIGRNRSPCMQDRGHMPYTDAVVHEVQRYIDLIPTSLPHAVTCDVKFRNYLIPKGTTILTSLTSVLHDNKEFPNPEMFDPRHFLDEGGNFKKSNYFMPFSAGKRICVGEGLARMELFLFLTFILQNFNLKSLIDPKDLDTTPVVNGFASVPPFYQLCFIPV
Chain of CYP2C9 (Homo sapiens, UniProt P11712) (P11712 whole entry): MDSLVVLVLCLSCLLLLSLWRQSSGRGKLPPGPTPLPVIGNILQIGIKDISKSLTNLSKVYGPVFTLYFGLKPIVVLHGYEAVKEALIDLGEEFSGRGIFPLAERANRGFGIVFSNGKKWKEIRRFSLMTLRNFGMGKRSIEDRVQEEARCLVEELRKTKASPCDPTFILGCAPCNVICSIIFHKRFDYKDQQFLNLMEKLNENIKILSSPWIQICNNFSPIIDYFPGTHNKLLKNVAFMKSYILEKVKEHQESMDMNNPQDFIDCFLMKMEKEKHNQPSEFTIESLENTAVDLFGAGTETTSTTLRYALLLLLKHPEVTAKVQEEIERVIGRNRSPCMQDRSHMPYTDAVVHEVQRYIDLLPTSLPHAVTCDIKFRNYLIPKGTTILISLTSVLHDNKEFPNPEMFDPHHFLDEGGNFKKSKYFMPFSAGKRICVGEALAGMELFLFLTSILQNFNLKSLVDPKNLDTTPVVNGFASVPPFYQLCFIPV
Chain of hERG channel (Q12809 whole entry): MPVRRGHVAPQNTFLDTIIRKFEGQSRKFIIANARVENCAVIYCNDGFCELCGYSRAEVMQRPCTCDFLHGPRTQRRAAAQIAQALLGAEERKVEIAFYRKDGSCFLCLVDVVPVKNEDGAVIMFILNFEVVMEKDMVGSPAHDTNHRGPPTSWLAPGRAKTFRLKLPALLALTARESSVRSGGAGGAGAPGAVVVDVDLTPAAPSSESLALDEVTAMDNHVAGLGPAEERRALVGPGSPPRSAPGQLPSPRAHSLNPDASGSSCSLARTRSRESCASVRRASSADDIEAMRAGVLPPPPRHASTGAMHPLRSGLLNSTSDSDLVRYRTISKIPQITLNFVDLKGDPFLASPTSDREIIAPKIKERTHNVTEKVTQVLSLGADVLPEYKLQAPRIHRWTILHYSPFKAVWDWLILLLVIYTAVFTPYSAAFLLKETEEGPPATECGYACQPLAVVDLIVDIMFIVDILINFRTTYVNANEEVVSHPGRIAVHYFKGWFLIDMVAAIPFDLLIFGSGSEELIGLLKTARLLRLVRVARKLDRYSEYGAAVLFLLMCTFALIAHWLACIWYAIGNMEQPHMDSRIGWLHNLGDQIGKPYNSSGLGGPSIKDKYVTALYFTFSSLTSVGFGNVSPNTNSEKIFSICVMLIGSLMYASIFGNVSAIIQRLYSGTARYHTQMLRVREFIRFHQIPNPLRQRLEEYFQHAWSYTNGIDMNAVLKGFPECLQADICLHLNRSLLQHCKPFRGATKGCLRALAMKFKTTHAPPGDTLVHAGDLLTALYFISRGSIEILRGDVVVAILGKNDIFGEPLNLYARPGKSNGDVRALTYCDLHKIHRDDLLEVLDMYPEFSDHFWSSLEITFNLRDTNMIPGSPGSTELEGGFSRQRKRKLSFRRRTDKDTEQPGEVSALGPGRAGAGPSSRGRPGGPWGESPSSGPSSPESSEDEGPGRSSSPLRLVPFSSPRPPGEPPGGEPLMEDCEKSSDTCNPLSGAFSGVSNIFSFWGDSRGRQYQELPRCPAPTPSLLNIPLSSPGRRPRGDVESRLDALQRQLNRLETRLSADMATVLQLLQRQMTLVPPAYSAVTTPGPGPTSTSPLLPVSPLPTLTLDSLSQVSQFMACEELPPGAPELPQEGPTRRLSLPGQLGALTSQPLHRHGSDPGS
Chain of CYP1A2 (P05177 whole entry): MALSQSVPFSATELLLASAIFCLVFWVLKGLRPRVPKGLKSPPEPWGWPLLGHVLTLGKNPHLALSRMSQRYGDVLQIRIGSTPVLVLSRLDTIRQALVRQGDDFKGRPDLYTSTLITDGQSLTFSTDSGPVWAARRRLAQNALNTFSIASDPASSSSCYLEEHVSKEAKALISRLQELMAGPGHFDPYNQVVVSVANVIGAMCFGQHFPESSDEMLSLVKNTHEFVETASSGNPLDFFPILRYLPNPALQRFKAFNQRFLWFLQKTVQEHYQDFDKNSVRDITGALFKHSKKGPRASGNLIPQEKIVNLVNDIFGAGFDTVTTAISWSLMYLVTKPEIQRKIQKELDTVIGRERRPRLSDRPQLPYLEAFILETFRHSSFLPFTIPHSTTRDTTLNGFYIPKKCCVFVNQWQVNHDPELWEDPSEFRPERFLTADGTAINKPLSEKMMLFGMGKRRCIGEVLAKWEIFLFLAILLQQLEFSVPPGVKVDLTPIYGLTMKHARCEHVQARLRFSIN

For `CNC(=O)c1cc2c(Oc3ccc(NC(=O)C4(C(=O)Nc5ccc(F)cc5)CC4)cc3)ccnc2cc1OC` [Compound 1, 1-N′-(4-Fluorophenvl)-1-N-[4-[7-methoxy-6-(methylcarbamovl)quinolin-4-yl]oxyphenyl]cyclopropane-1,1-dicarboxamide], the “TGI (%)” value (SNU-5; 3 mg/kg qd × 14 oral, p-value 0.0052) was 54.2%, the “TGI (%)” value (SNU-5; [12]) was 94.7% and the “TGI (%)” value (NCI-H441; 3 mg/kg qd × 14 oral, p-value 0.0115) was 63.3%. For the same compound, the “TGI (%)” value (NCI-H441; [12]) was “regression”, the EC50 (CYP3A4 [1]; [13]) was 2980 nM and the “maximal induction effect (Emax)” value (CYP3A4 [1]; mRNA, 0.1-100 μM) was 24 fold. For the same compound, the EC50 (CYP2C19 [2]; [13]) was 6210 nM, the “maximal induction effect (Emax)” value (CYP2C19 [2]; mRNA, 0.1-100 μM) was 6 fold and the IC50 (hERG channel) was ~4000 nM. The EC50 (CYP2C9 [3]; [13]) was 1710 nM, the “maximal induction effect (Emax)” value (CYP2C9 [3]; mRNA, 0.1-100 μM) was 5 fold and the “role in the metabolism of Compound 1” value (CYP2D6 [4]) was “only a minor role”. The IC50 (VEGFR2) was 1.5 nM, the CLint [5] was 0.533 mL/min/g liver and the protein bound ([6]; 10 μM) was 97.2%. For the same compound, the fraction unbound ([6]; monkey, plasma, 0.2 and 1 μM) was < 0.01, the Ki (CYP3A4 [7]) was 25200 nM and the time-dependent inhibition (CYP3A4 [7]; testosterone as probe substrate) was “time-dependent inhibitor”. For the same compound, the Ki (CYP2C19 [8]) was 1360 nM, the IC50 (CYP2D6 [9]) was > 33000 nM and the Ki (CYP2C9 [10]) was 7110 nM. For the same compound, the IC50 (CYP 2B6) was > 33000 nM, the IC50 (CYP1A2) was > 33000 nM and the Ki (CYP2C8) was 1270 nM. It also gave a Papp [11] of 3.83 ×10⁻⁶ cm/s and an IC50 (MET) of 15 nM.
